Results taken from BindingDB's records for doi:10.1016/s0028-3908(00)00035-6 (University of Cambridge, 2000).
“And” between values parts separate entries of the source, which are not always exact repeats. Equal entries are not always repeated.

Experiments:
[1] = target: Somatostatin receptor type 4 (Homo sapiens, UniProt P31391)
[2] = target: Somatostatin receptor type 5 (Homo sapiens, UniProt P35346)
[3] = target: Somatostatin receptor type 2 (Rattus norvegicus, UniProt P30680)
[4] = target: Somatostatin receptor type 2 (Homo sapiens, UniProt P30874)
Chain of Somatostatin receptor type 2 (Homo sapiens, UniProt P30874) (P30874 whole entry): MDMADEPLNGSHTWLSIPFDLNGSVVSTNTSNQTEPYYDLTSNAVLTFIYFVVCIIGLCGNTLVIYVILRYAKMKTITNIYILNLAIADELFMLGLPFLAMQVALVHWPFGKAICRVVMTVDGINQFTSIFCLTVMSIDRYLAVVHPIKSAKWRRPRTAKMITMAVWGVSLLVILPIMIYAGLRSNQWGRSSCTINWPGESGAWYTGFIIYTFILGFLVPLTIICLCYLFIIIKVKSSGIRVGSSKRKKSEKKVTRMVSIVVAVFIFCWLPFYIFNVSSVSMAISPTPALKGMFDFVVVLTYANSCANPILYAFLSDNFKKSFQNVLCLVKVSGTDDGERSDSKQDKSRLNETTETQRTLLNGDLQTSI

[5] = target: Somatostatin receptor type 3 (Homo sapiens, UniProt P32745)
Chain of Somatostatin receptor type 3 (P32745 whole entry): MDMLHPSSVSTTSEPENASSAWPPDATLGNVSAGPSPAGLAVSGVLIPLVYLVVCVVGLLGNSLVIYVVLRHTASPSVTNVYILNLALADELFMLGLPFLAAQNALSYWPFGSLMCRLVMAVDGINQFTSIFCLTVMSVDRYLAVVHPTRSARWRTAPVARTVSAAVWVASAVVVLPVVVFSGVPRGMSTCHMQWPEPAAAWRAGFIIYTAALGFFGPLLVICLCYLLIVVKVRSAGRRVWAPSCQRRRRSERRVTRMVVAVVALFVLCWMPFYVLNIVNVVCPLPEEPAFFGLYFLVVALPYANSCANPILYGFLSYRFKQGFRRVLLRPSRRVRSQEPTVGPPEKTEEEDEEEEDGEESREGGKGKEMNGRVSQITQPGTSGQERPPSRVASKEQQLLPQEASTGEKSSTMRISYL

Chain of Somatostatin receptor type 2 (Rattus norvegicus, UniProt P30680) (P30680 whole entry): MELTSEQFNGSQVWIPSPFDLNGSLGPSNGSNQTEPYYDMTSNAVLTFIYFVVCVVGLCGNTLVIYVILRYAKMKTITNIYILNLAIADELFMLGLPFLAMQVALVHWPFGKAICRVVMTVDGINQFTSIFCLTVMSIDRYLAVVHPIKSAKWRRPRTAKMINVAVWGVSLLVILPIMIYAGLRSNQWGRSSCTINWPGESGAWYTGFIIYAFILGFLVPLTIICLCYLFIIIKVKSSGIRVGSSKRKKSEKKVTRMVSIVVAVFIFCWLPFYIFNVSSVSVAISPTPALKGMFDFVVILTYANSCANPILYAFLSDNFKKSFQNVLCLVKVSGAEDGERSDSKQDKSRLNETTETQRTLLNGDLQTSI
Chain of Somatostatin receptor type 5 (P35346 whole entry): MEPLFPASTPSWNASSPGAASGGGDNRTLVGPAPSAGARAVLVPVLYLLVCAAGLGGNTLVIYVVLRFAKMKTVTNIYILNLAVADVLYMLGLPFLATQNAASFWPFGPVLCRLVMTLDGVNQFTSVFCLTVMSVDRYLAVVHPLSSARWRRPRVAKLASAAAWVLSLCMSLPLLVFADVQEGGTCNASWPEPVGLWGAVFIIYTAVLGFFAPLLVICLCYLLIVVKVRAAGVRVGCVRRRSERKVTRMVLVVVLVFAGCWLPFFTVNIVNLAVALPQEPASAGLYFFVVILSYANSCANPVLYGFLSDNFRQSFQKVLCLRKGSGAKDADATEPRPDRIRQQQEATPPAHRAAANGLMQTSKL
Chain of Somatostatin receptor type 4 (P31391 whole entry): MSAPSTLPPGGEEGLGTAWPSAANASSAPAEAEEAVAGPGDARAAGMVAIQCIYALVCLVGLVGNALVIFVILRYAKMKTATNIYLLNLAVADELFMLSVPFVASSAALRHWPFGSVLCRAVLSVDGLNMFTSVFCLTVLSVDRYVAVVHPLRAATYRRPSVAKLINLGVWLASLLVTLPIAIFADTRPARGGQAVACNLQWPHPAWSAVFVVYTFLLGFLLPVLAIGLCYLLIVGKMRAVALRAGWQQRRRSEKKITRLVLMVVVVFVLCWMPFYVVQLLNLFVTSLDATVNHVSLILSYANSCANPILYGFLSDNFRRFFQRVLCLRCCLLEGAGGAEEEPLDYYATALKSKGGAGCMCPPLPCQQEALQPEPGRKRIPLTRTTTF

## CC(=O)N[C@@H](Cc1ccc([N+](=O)[O-])cc1)C(=O)N[C@@H]1CSSC[C@@H](C(=O)N[C@H](Cc2ccc(O)cc2)C(N)=O)NC(=O)[C@H]([C@@H](C)O)NC(=O)[C@H](CCCCN)NC(=O)[C@@H](Cc2c[nH]c3ccccc23)NC(=O)[C@H](Cc2ccc(O)cc2)NC1=O [CAS_183658-72-2]
[1]
  Ki: 1740 nM
[2]
  Ki: 331 nM
[3]
  Ki: 7.94 nM and 4.47 nM
[4]
  Ki: 2.63 nM
[5]
  Ki: 851 nM
